# Experimental data as given in PMC6401477, “Quorum Sensing Signal Selectivity and the Potential for Interspecies Cross Talk” (mBio, 2019).
# Where “and” joins values, the source holds several entries; their conditions need not be identical. Equal entries are not always repeated. Where two headings read alike, the source gives them in different places.
# Columns and labels:
# [1] = biological target: T1, LasR (Pseudomonas aeruginosa, UniProt P25084); assay: cell-based; settings: P. aeruginosa PAO-SC4 (pPROBE-PrsaL); mean ± SEM, n ≥ 3; read-out: EC50 LasR in native host
# T1 construct: expressed in transfected cells; host or cells: E. coli 5α (DH5α) with pJNL and pPROBE-PrsaL
# T1 sequence (P25084 1-239): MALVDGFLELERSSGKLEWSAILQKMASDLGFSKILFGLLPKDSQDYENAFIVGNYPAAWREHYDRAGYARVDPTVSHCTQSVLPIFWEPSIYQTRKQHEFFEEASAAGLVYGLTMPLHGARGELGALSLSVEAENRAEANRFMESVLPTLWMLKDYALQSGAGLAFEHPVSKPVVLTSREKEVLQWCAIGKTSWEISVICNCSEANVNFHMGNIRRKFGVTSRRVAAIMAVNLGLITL
# [2] = biological target: T2, QscR (Pseudomonas aeruginosa, UniProt G3XD77); assay: cell-based; settings: P. aeruginosa PAO-SC4 (pPROBE-PPA1897); read-out: EC50 QscR in native host
# T2 construct: expressed in transfected cells; host or cells: E. coli 5α (DH5α) with pJNQ and pPROBE-PPA1897
# T2 sequence (G3XD77 1-237): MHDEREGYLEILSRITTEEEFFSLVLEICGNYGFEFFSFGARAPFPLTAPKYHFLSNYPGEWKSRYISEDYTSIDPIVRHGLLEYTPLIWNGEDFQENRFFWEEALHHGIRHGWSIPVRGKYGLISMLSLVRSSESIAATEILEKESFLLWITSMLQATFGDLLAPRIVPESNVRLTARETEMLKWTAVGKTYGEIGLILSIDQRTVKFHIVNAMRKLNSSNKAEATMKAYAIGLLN
# [3] = biological target: T3, LuxR (Aliivibrio fischeri, UniProt P12746); assay: cell-based; settings: V. fischeri MJ215, luminescence; read-out: EC50 LuxR in native host
# T3 construct: endogenous in cells; host or cells: V. fischeri MJ215
# T3 sequence (P12746 1-250): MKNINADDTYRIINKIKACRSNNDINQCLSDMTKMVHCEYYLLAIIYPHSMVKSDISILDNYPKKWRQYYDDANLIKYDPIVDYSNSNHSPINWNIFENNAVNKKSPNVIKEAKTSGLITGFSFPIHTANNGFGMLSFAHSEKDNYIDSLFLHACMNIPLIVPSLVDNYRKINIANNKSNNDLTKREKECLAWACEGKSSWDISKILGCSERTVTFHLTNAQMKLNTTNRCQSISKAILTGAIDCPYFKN
# [4] = biological target: T4, CviR (Chromobacterium violaceum, UniProt D3W065); assay: cell-based; settings: C. violaceum CV026, violacein; read-out: EC50 CviR in native host
# T4 construct: Violacein was used as a measure of CviR activity in C. violaceum (CV026); endogenous in cells; host or cells: C. violaceum CV026
# [5] = biological target: T1, LasR; assay: cell-based; parameters: species or system P. aeruginosa; settings: receptor expressed in E. coli (DH5α), arabinose-induced
# [6] = biological target: T5, RhlR (Pseudomonas aeruginosa, UniProt P54292); assay: cell-based; type: cell-based, P. aeruginosa; settings: for EC50: receptor expressed in E. coli (DH5α), arabinose-induced
# T5 sequence (P54292 1-241): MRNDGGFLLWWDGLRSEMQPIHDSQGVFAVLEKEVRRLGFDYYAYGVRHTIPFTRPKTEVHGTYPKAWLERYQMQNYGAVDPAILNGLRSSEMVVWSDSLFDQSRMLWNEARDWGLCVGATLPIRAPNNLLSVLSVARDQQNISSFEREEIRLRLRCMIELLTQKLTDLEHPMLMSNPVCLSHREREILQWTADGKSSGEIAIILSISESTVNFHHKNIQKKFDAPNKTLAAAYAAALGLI
# [7] = biological target: T2, QscR; assay: cell-based; parameters: species or system P. aeruginosa; settings: receptor expressed in E. coli (DH5α), arabinose-induced
# [8] = biological target: T6, BtaR2 (Burkholderia thailandensis, UniProt Q2T5X2); assay: cell-based; parameters: species or system B. thailandensis
# T6 sequence (Q2T5X2 1-234): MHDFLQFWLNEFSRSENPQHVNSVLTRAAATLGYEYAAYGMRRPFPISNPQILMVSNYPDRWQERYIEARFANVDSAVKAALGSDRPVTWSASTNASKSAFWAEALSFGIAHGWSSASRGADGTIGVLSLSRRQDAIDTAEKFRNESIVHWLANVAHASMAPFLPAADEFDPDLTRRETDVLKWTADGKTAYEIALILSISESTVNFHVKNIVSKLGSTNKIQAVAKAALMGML
# [9] = biological target: T7, BtaR1 (Burkholderia thailandensis, UniProt Q2T543); assay: cell-based; parameters: species or system B. thailandensis
# T7 sequence (Q2T543 1-239): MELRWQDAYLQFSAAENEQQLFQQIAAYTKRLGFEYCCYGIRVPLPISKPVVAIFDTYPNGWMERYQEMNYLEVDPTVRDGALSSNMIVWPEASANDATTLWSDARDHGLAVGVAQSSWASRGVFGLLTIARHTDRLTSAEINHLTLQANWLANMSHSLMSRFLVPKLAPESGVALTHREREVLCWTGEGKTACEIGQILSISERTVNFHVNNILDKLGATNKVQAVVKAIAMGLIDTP
# [10] = biological target: T7, BtaR1; assay: cell-based; parameters: species or system B. thailandensis; remark: listed apart in the source
# [11] = biological target: T5, RhlR; type: cell-based; settings: at 1 mM; native P. aeruginosa reporter
# [12] = biological target: T6, BtaR2; assay: cell-based; parameters: species or system B. thailandensis; remark: listed apart in the source
# [13] = biological target: T5, RhlR; assay: cell-based; parameters: species or system P. aeruginosa; settings: rhlR overexpressed via pJNR in PAO-SC4; mean ± SEM, n ≥ 3; read-out: EC50 overexpression (RhlR)
SMILES,EC50 [1],EC50 [2],EC50 [3],EC50 [4],EC50 [5],EC50 [6],EC50 [7],EC50 [8],EC50 [9],EC50 [10],saturation of RhlR activity [11],EC50 [12],EC50 [13],effect on RhlR activity in E. coli ([6]; AHL 100 µM (Fig. S3))
CCCCCCCCCC(O)CC(=O)N[C@H]1CCOC1=O (stereo partly drawn) [3OHC12-HSL],48.4 ± 13.2 µM,23.9 ± 9.2 µM,> 100 µM,> 100 µM,1.23 ± 0.86 µM,> 100 µM,0.11 ± 0.05 µM,0.0915 ± 0.0252 µM,,,,,,
CCCCCCCCCCCC(O)CC(=O)N[C@H]1CCOC1=O (stereo partly drawn) [3OHC14-HSL],2.66 ± 0.68 µM,,> 100 µM,> 100 µM,0.2 ± 0.02 µM,> 100 µM,0.15 ± 0.04 µM,,> 100 µM,2.23 ± 0.73 µM,,,,
CC(O)CC(=O)N[C@H]1CCOC1=O (stereo partly drawn) [3OHC4-HSL],> 100 µM,> 100 µM,> 100 µM,> 100 µM,> 100 µM,> 100 µM,> 100 µM,25 ± 2.6 µM,> 100 µM,,,,,
"CCCC(=O)N[C@H]1CCOC1=O [C4-HSL, N-butyryl-L-homoserine lactone]",> 100 µM,> 100 µM,> 100 µM,14.3 ± 3.8 µM,> 100 µM,122 ± 17 µM,> 100 µM,> 100 µM,> 100 µM,,not saturated,> 100 µM,12 ± 3.1 µM,
"CCCCCCCCCC(=O)N[C@H]1CCOC1=O [C10-HSL, N-decanoyl-L-homoserine lactone]",,,42 ± 7.6 µM,> 100 µM,8.67 ± 1.49 µM,> 100 µM,,,,,,,,
"CCCCCCCCCCCC(=O)CC(=O)N[C@H]1CCOC1=O [3OC14-HSL, N-3-oxotetradecanoyl-L-homoserine lactone]",2.35 ± 0.66 µM,,> 100 µM,> 100 µM,0.0125 ± 0.0045 µM,> 100 µM,,,> 100 µM,1.26 ± 0.25 µM,,,,
CCCCCCCCCCCCCCCC(=O)N[C@H]1CCOC1=O [C16-HSL],> 100 µM,> 100 µM,> 100 µM,> 100 µM,,> 100 µM,> 100 µM,> 100 µM,,,,> 100 µM,,
CCCCCCCCCCCC(=O)N[C@H]1CCOC1=O [C12-HSL],,,> 100 µM,> 100 µM,0.66 ± 0.07 µM,> 100 µM,,,,,,,,
CCCCCCCCCCCCCC(=O)CC(=O)N[C@H]1CCOC1=O [3OC16-HSL],7.05 ± 1.88 µM,> 100 µM,> 100 µM,> 100 µM,0.13 ± 0.03 µM,> 100 µM,0.17 ± 0.07 µM,,> 100 µM,1.37 ± 0.27 µM,,,,
CCCC(=O)CC(=O)N[C@H]1CCOC1=O [3OC6-HSL],,> 100 µM,0.272 µM and 0.27 µM,0.98 ± 0.26 µM,,,,> 100 µM,> 100 µM,> 100 µM,,,,
CCCCCCCCCCCCCC(=O)N[C@H]1CCOC1=O [C14-HSL],,> 100 µM,> 100 µM,> 100 µM,0.36 ± 0.13 µM,> 100 µM,0.0896 ± 0.0201 µM,,,0.97 ± 0.35 µM,,,,
CCCCCCCC(=O)N[C@H]1CCOC1=O [C8-HSL],> 100 µM,> 100 µM,,1.66 ± 0.92 µM,,,1.9 ± 0.27 µM,,,,,13.9 ± 2.1 µM,,
CCCC(O)CC(=O)N[C@H]1CCOC1=O (stereo partly drawn) [3OHC6-HSL],> 100 µM,> 100 µM,,,> 100 µM,> 100 µM,> 100 µM,,> 100 µM,> 100 µM,,,,
CCCCCC(=O)N[C@H]1CCOC1=O [C6-HSL],> 100 µM,> 100 µM,,0.0834 ± 0.0245 µM,> 100 µM,134 ± 26 µM,,> 100 µM,,,,,,
CCCCCC(=O)CC(=O)N[C@H]1CCOC1=O [3OC8-HSL],59.1 ± 7.5 µM,,0.49 ± 0.11 µM,5.47 ± 0.27 µM,17.4 ± 6.5 µM,,,,,1.1 ± 0.29 µM,,,,
CCCCCCCC(=O)CC(=O)N[C@H]1CCOC1=O [3OC10-HSL],,,4 ± 0.51 µM,> 100 µM,0.21 ± 0.06 µM,> 100 µM,0.26 ± 0.16 µM,,,2.83 ± 1.61 µM,,,,
"CCCCCCCCCC(=O)CC(=O)N[C@H]1CCOC1=O [3OC12-HSL, N-3-oxo-dodecanoyl-L-homoserine lactone]",,,7.1 ± 2 µM,> 100 µM,,> 100 µM,,,,,,,,does not affect
"CCCCCC(O)CC(=O)N[C@H]1CCOC1=O (stereo partly drawn) [3OHC8-HSL, N-3-hydroxyoctanoyl-L-homoserine lactone]",> 100 µM,> 100 µM,> 100 µM,21.2 ± 6.6 µM,,> 100 µM,5.82 ± 1.49 µM,,,,,,,
CCCCCCCC(O)CC(=O)N[C@H]1CCOC1=O (stereo partly drawn) [3OHC10-HSL],,,> 100 µM,,7.91 ± 0.45 µM,> 100 µM,0.0299 ± 0.0134 µM,,,1.82 ± 0.07 µM,,,,
